Assay results: US8623377B2, “Joint-homing peptides and uses thereof” (University of Maryland, Baltimore, priority 2011, dated 2014)

How the values were obtained:
LPS-stimulated HUVECs = assay: Internalization of FITC-labeled peptide in LPS-stimulated HUVECs; assay type: cell-based, human
Method: FIG. 2A: Binding of specific phage encoding the peptide NQR or ADK to the vascular endothelium was visualized by immunohistochemical examination of the hind paw section of the rthritic rats using the anti-T7 phage antibody. The binding of phage was tested in the presence or absence of the corresponding synthetic peptide. BV, blood vessel, L, lumen. FIG. 2B: Arthritic rats were injected with specific phage (ADK phage, left; NQR phage, center; or RGD phage, right) in the presence or absence of the corresponding synthetic peptide, and the titer of the phage recovered from the synovial tissue was assessed. *P<0.01. FIG. 2C: CD31-expressing endothelial cells were isolated from arthritic rat joints (upper) or the liver (lower) and stained with DAPI (blue), FITC-labeled peptide NQR (green), or Alexa Fluor 594-labeled anti-rat CD31 antibody (red). Also shown is the staining overlay (merge) of green and red (yellow). The inset is an enlarged view of a single cell; original magnification, 20×. FIG. 2D: LPS-stimulated HUVECs were stained with DAPI and FITC-labeled peptide NQR and observed under a fluorescence microscope, original magnification, 100×.

[1] = test system: hind paw joints of arthritic Lewis rats; assay: Histopathological evaluation of hind paw joints of arthritic rats; assay type: in vivo, Lewis rat; conditions: H&E-stained hind paw sections
Method: FIG. 3A: Group of arthritic Lewis rats (n=4 per group) were injected with a peptide (AD, NQR, or RGD) or PBS i.v. on the days indicated by the arrows either at the onset or just after the onset of arthritis. The its were monitored regularly for the disease severity, presented as “arthritic score”. […] The sections were graded for histopathological features associated with arthritis. B, bone; C, cartilage, JS, joint space; SIC, synovium-infiltrating cells.
The synthetic peptide corresponding to the selected phage-encoded peptide was diluted in PBS and injected i.v. into Lewis rats beginning either at the onset or just after the onset of arthritis after Mtb injection. The peptide was injected to rats on alternate days at a dose of 1 or 2 mg/kg body weight. A total of three or four injections were given to each rat. Control animals received an equal volume of PBS. All rats were graded regularly for clinical signs of arthritis (36). The hind paws of these rats were harvested and processed for histopathological examination.
Hind paws of rats were harvested, skinned, and fixed with 10% phosphate buffered formalin (Fisher Scientific) for 3-7 d (1). […] Tissue sections (5 μm) were placed on a glass slide, stained with H&E (Sigma-Aldrich), and assessed for morphological changes and cellular infiltrates.

HUVECs = assay: Endothelial tube (tubule) formation on Matrigel with VEGF; assay type: cell-based, human; conditions: VEGF 10 ng/mL, peptide 0-100 μg/mL
Method: FIG. 4A: Draining lymph node leukocytes from arthritic rats were dye-tagged with PKH67 and injected i.v. into arthritic rats. One group of rats was left untreated, and the other groups were treated with ADK or NQR peptide. After 24 hours, the synovium-infiltrating cells (SICs) were harvested from the joints, subjected to cytospin, and analyzed by fluorescence microscopy (left). In parallel, another set of synovium-infiltrating cells were stained with PE-labeled anti-CD3 or anti-CD 11b/c+ antibody and analyzed by flow cytometry (right). FIG. 4B: HUVECs were cultured on Matrigel-coated wells for 24 hours in the presence of VEGF (10 ng/mL) and various concentrations (0-100 μg/mL) of NQR (left), ADK (center), and RGD (right) peptides. The branches of vessel-like tubes were counted. A reprensentative set of results is shown. *P<0.05, compared with the VEGF-alone control.
HUVECs (1×10^4) were cultured in 80 μL/well of growth factor-reduced Matrigel (BD Biosciences) in a 96-well plate in 100 μL/well of F-12K medium (with no supplements). These cells were then treated for 20 h with VEGF (R&D Systems) in the presence or absence of different concentrations of peptides (NQR, ADK, or RGD). Tubule formation was observed under a microscope, quantitated, and photographed.

[2] = test system: HUVECs attachment to vitronectin; assay: Attachment of HUVECs to vitronectin; assay type: cell-based, human; conditions: peptide 30-800 μg/mL, 1 h on vitronectin-coated wells
Method: HUVECs were first suspended in F-12K medium containing the indicated concentrations of NQR, AK or RGD peptide and then incubated for 1 h in microtiter wells coated with vitronectin. The number of cells that attached to vitronectin was quantified. The results of three independent experiments are shown. *P<0.05, compared with the baseline control.
The attachment of HUVECs to vitrnectin was quantified as described (37, 38). Microtiter wells were coated overnight at 4° C. with 2 μg/mL of vitronectin (BD Biosciences). These wells were then blocked for 1 h at 37° C. with 10 mg/mL of BSA (Sigma-Aldrich). In parallel, HUVECs (1.5×10^5 cells/mL) suspended in F-12K medium containing 10% FBS were incubated for 15 min at 37° C. with different concentrations (30-800 μg/mL) of NQR, ADK, or RGD peptide. Thereafter, this cell suspension 100 μL/well) was added to the vitronectin-coated wells, followed by incubation at 37° C. for 1 h. After washing, the number of attached cells was determined using crystal violet (Fisher Scientific).

ERK1/2 = assay: VEGF-induced signaling in HUVECs, Western blot p-ERK1/2; assay type: cell-based, human; conditions: peptide 10, 50, 100 μg/mL 1 h, then VEGF 10 ng/mL 20 min
Text: (§1) FIG. 6A: HUVECs were stimulated with VEGF and treated with the indicated concentrations of peptides. Phosphorylated ERK1/2 and Akt, as well as total ERK1/2 and Akt, were detected by Western blot analysis. FIG. 6B: Thereafter, p-ERK1/2 and p-Akt were quantified by densitometry, normalized to total ERK1/2 (left) and Akt (right), respectively, and compared with cells in serum-free medium. The results of a representative experiment from a set of three independent experiments are shown. *P<0.05, compared with the positive control.
(§2) HUVECs were grown in F-12K medium in the presence of endothelial cell growth supplement (ECGS) (BD Biosciences) and 15% FBS. Confluent cells were starved in basal medium (without ECGS and FBS) for 6 h. Then the cells were pretreated for 1 h with different concentrations (10, 50, and 100 μg/mL) of a peptide (NQR, ADK, or RGD) in fresh basal medium, followed by treatment with VEGF (10 ng/mL) for another 20 min. The conditional medium was discarded, and the cells were lysed using a lysis buffer containing protease inhibitors and phosphatase inhibitors. The cell lysate was then centrifuged, and the resulting supernatant was used for analysis of signaling molecules using specific antibodies to human pERK1/2, ERK1/2, pAkt, Akt, and GAPDH (Cell Signaling Technology) by Western blot analysis. The intensity of the bands in the gel was quantified by densitometry. The levels of p-ERK1/2 and p-Akt were normalized to total ERK1/2 and Akt, respectively, and compared with cells in serum-free medium.

Akt = assay: VEGF-induced signaling in HUVECs, Western blot p-Akt; assay type: cell-based, human; conditions: peptide 10, 50, 100 μg/mL 1 h, then VEGF 10 ng/mL 20 min
Text: as §1, §2

## CLDNQRPKC (Synthetic peptide homing to joint in an animal) [NQR peptide, joint-homing phage-derived synthetic peptide]
LPS-stimulated HUVECs; FITC-labeled peptide, LPS-stimulated HUVECs
  cellular uptake of peptide: transported across the cell membrane into the cytoplasm and the nucleus
LPS-stimulated HUVECs; after addition to the cells
  time by which most peptide accumulated in the perinuclear area: ≤ 45 min
[1]
  joint damage (histopathology) versus PBS-treated arthritic rats: much less damage
HUVECs
  effect on endothelial cell tube formation: inhibited tube formation
[2]
  effect on attachment of HUVECs to vitronectin: Neither peptide had any effect
ERK1/2
  effect on VEGF-induced pERK: induced a decrease in pERK
Akt
  effect on VEGF-induced pAkt: had no effect on pAkt
